The source made the active and inactive calls. The rule behind the calls is not given here.
Tests used:
[1] = test system: Vero; assay: Cytotoxicity against african green monkey Vero cells upto 48 uM; type: cell-based; settings: chlorocebus sabaeus
[2] = test system: LLC-PK1; assay: Cytotoxicity against pig LLC-PK1 cells upto 48 uM; type: cell-based, Sus scrofa
[3] = test system: HL-60; assay: Cytotoxicity against human HL60 cells by XTT assay; type: functional, cell-based
[4] = test system: HL-60; assay: Antioxidant activity in human HL60 cells assessed as inhibition of TPA-stimulated hydrogen peroxide induced DCFH-DA oxidation by fluorometric microplate assay; type: functional, cell-based

## COc1cc2c(c(O)c1OC)-c1c(cc(OC)c(OC)c1OC)CC(C)C(C)C2 (centres undefined) [GOMISIN K3]
[1]
  Activity: Not Active
[2]
  Activity: Not Active
[3]
  IC50: 56.2 µM
[4]
  IC50: > 155 µM

## COc1cc2c(c(OC)c1OC)-c1c(cc(OC)c(OC)c1OC)C[C@](C)(O)[C@@H](C)C2 [SCHIZANDRIN]
[1]
  Activity: Not Active
[2]
  Activity: Not Active
[3]
  Activity: inactive
[4]
  Activity: inactive

## COc1cc2c(c(OC)c1OC)-c1c(cc(OC)c(OC)c1OC)C[C@H](C)[C@H](C)C2 [SCHISANDRIN A]
[1]
  Activity: Not Active
[2]
  Activity: Not Active
[3]
  Activity: inactive
[4]
  Activity: inactive

## COc1cc2c(c(OC)c1OC)-c1c(cc3c(c1OC)OCO3)C[C@H](C)[C@@](C)(O)C2 [GOMISIN A]
[1]
  Activity: Not Active
[2]
  Activity: Not Active

## CC(Cc1ccc(O)c(O)c1)C(C)Cc1ccc(O)c(O)c1 (centres undefined) [NORDIHYDROGUAIARETIC ACID]
[3]
  IC50: 12.2 µM
[4]
  IC50: 2.3 µM

## O=C1O[C@H]([C@@H](O)CO)C(O)=C1O [ASCORBIC ACID]
[3]
  Activity: inactive
[4]
  IC50: 10.2 µM

## C/C=C(\C)C(=O)O[C@H]1c2cc(OC)c(OC)c(OC)c2-c2c(cc3c(c2OC)OCO3)C[C@H](C)[C@]1(C)O [GOMISIN B]
[3]
  Activity: inactive
[4]
  IC50: > 116 µM

## C=C1[C@H](C)Cc2cc3c(c(OC)c2-c2c(cc4c(c2OC)OCO4)[C@H]1OC(=O)c1ccccc1)OCO3 [SCHISANDRENE]
[1]
  Activity: Not Active
[2]
  Activity: Not Active
[3]
  IC50: 55.8 µM
[4]
  IC50: 2.8 µM

## COc1c2c(cc3c1-c1c(cc4c(c1OC)OCO4)C[C@H](C)[C@H](C)C3)OCO2 [SCHISANDRIN C]
[1]
  Activity: Not Active
[2]
  Activity: Not Active
[3]
  IC50: 41.2 µM
[4]
  Activity: inactive

## COc1cc2c(c(OC)c1OC)-c1c(cc(OC)c(OC)c1OC(=O)c1ccccc1)CC(C)C(C)(O)C2 (centres undefined) [BENZOYLGOMISIN H]
[1]
  Activity: Not Active
[2]
  Activity: Not Active
[3]
  IC50: 41.2 µM
[4]
  Activity: inactive

## C/C=C(/C)C(=O)Oc1c(OC)c(OC)cc2c1-c1c(cc(OC)c(OC)c1OC)CC(C)(O)C(C)C2 (centres undefined) [ANGELOYLGOMISIN]
[1]
  Activity: Not Active
[2]
  Activity: Not Active
[3]
  IC50: 45.3 µM
[4]
  IC50: 81.5 µM

## COc1cc2c(c(OC)c1OC)-c1c(cc3c(c1OC)OCO3)[C@H](OC(=O)c1ccccc1)[C@@](C)(O)[C@@H](C)C2 [GOMISIN G]
[1]
  Activity: Not Active
[2]
  Activity: Not Active
[3]
  IC50: 48.3 µM
[4]
  IC50: 38.2 µM

## COc1cc2c(c(OC)c1OC)-c1c(cc3c(c1OC)OCO3)C[C@H](C)[C@](C)(O)C2
[3]
  Activity: inactive
[4]
  Activity: inactive

## COc1cc2c(c(OC)c1OC)-c1c(cc3c(c1OC)OCO3)C[C@H](C)[C@H](C)C2 [WUWEIZISU B]
[1]
  Activity: Not Active
[2]
  Activity: Not Active
[3]
  IC50: 52.4 µM
[4]
  Activity: inactive

## C/C=C(\C)C(=O)Oc1c(OC)c(OC)cc2c1-c1c(cc(OC)c(OC)c1OC)C[C@](C)(O)[C@@H](C)C2 [TIGLOYLGOMISIN H]
[1]
  Activity: Not Active
[2]
  Activity: Not Active
[3]
  IC50: 44.3 µM
[4]
  IC50: > 125 µM

## C/C=C(/C)C(=O)O[C@H]1c2cc(OC)c(OC)c(OC)c2-c2c(cc3c(c2OC)OCO3)C[C@H](C)[C@]1(C)O [GOMISIN B]
[1]
  Activity: Not Active
[2]
  Activity: Not Active

## Cc1c(C)c2c(c(C)c1O)CCC(C)(C(=O)O)O2 (centres undefined) [TROLOX]
[3]
  Activity: inactive
[4]
  IC50: 3.6 µM
